Measured values from patent US20090093374A1, “METHOD OF ARRAYING CELLS AT SINGLE-CELL LEVEL INSIDE MI[…] AND METHOD OF ANALYSING CELLS USING THE SAME, AND CELL ANALYSIS CHIP USED FOR CARRYING OUT THE SAME” (priority 2007, published 2009).

What was measured:
a-type yeast cell [1] = assay: GFP expression of yeast cells arrayed in shallow rectangular microwells, cell solution pre-treated with α-factor (Embodiment 1); assay type: cell-based, Saccharomyces cerevisiae; settings: FIG. 14
Excerpt: (§1) For example, to obtain information with regard to a mating of the yeast cell, a pheromone, e.g., so-called α-factor, may be injected into the fluidic channel as the analysis reagent. If an a-type yeast cell is used as the cell, it is preferable that a pheromone of which a sequence is TRP-HIS-TRP-LEU-GLN-LEU-LYS-PRO-GLY-GLN-PRO-MET-TYR, is used as α-factor. In a subsequent operation, when analyzing responses, it is possible to obtain information with regard to whether or not a protein related to the mating is created in a corresponding cell, and the amount of the protein.
(§2) For instance, in the case where the yeast cell is treated with α-factor, it is possible to observe whether or not a protein related to the mating is created and the amount of the protein through the expression intensity of a green fluorescent protein (GFP) with a time. Moreover, in the case where the yeast cell is treated with KCl, it is possible to find out the creation amount of corresponding proteins through a red fluorescent protein (RFP), and also analyze the response of the corresponding yeast cell upon the external stress.
A mixed solution in which a-type yeast cell solution using yeast extract peptone dextrose (YPD) medium had been pre-treated with α-factor, e.g., pheromone having a sequence of TRP-HIS-TRP-LEU-GLN-LEU-LYS-PRO-GLY-GLN-PRO-MET-TYR, was introduced into a fluidic channel through an inlet. The introduced mixed solution filled the fluidic channel through a capillary flow.
After that, the inlet was sealed with a tape so that the mixed solution was evaporated through an outlet. Accordingly, a receding meniscus was generated, allowing the cells to be arrayed in the well structures at a single-cell level. At this time, it took about 10 minutes for the cells to be arrayed while the meniscus was receding.
FIG. 14 is a micrograph showing GFP expression of a yeast cell with respect to α-factor according as a time elapses using the fluidic channel. […]

a-type yeast cell [2] = assay: GFP expression of yeast cells arrayed in deep rectangular microwells, α-factor introduced after arraying and cleaning (Embodiment 2); assay type: cell-based, Saccharomyces cerevisiae; settings: FIG. 15
Excerpt: as §1, §2
An a-type yeast cell solution using YPD medium was introduced into a fluidic channel. The introduced cell solution was filled into the fluidic channel through a capillary flow. After that, the inlet was sealed with a tape so that the cell solution was evaporated through an outlet. Accordingly, a receding meniscus was generated, thereby allowing the cells to be arrayed in the well structures at a single-cell level.
Afterwards, a cleaning solution containing amino acid, nitrogen, glucose, etc was introduced through the capillary flow caused by a surface tension, residual cells remaining at a side of the inlet were cleaned. At this time, a tissue paper was placed in the outlet to absorb and remove the residual cells and the cleaning solution.
After the residual cells are completely cleaned, […] was also introduced into the microfluidic channel by the capillary flow caused by the surface tension. […]

[3] = 30 minutes after α-factor treatment
[4] = 60 minutes after α-factor treatment
[5] = 120 minutes after α-factor treatment (versus 60 minutes)

TRP-HIS-TRP-LEU-GLN-LEU-LYS-PRO-GLY-GLN-PRO-MET-TYR (WHWLQLKPGQPMY; printed: TRP-HIS-TRP-LEU-GLN-LEU-LYS-PRO-GLY-GLN-PRO-MET-TYR) [α-factor, pheromone used as analysis reagent for mating response of a-type yeast cell]
GFP expression (a-type yeast cell [1]; [3]): cannot be observed yet | GFP expression (a-type yeast cell [1]; [4]): observed to be bright | GFP expression intensity (a-type yeast cell [1]; [5]): does not vary | GFP expression (a-type yeast cell [2]; [3]): cannot be observed yet | GFP expression (a-type yeast cell [2]; [4]): observed to be bright | GFP expression intensity (a-type yeast cell [2]; [5]): does not vary
